The subject of data set [1] is Hepatitis B virus. As to the kind of experiment: Antiviral activity against HBV infected in human HepAD38 cells assessed as inhibition of viral DNA synthesis by dot blot hybridization method. As to conditions: for EC50: Hepatitis B virus, HePAD38. Type of data set: functional, organism-based. The arrangement: -log(1/EC50): unit not given here.
Data set [2] in a line: Cytotoxicity against human HepAD38 cells assessed as reduction in cell viability. Type of data set: cell-based.
The subject of data set [3] is HepG2. Briefly: Cytotoxicity against human HepG2 cells assessed as reduction in cell viability. The class given is cell-based.

Each structure is given as a SMILES string. Where only a bound is given, the exact number is not on record here.

The term EC50 denotes the midpoint of the concentration-response curve. As to `COc1ccc(/C(Br)=C(/NC(=O)c2ccccc2)C(=O)N2CCCCC2)cc1`, in data set [1], the “-log(1/EC50)” value came out at 0.9031 and the EC50 came to 8 µM. Moreover, the Activity entry in data set [2] was “Non-toxic”.
`O=C(N/C(C(=O)N1CCCCC1)=C(\Br)c1ccccc1Cl)c1ccccc1`: in data set [1], the “-log(1/EC50)” value was 0.9031 and the EC50 turned out to be 8 µM. Also, the Activity entry in data set [2] is reported as “Non-toxic”.
On to `Cc1ccc(/C(Cl)=C(/NC(=O)c2ccccc2)C(=O)N2CCCCC2)cc1`, for which, in data set [1], the “-log(1/EC50)” value turned out to be 0.04139 and the EC50 stood at 1.1 µM. For the same molecule, in data set [2], the Activity entry is recorded as “Non-toxic”.
For `O=C(N/C(C(=O)N1CCCCC1)=C(\Cl)c1cccc(Br)c1)c1ccccc1`, in data set [1], the “-log(1/EC50)” value turned out to be 2 and the EC50 is > 100 µM. Further, the Activity result in data set [2] is listed as “Non-toxic”.
The matching figures for `O=C(N/C(C(=O)N1CCCCC1)=C(\Br)c1cccnc1)c1ccccc1`: 0, 1 µM and “Non-toxic”.
Take `O=C(N/C(C(=O)N1CCCCC1)=C(\Br)c1ccco1)c1ccccc1`: in data set [1], the “-log(1/EC50)” value is recorded as -0.04576 and the EC50 came out at 0.9 µM. Besides, the Activity entry in data set [2] was “Non-toxic”.
As for `O=C(N/C(C(=O)N1CCCCC1)=C(\Br)c1ccccc1Br)c1ccccc1`, in data set [1], the “-log(1/EC50)” value is 1.398 and the EC50 is 25 µM. In addition, the Activity entry in data set [2] was “Non-toxic”.
In the case of `O=C(N/C(C(=O)N1CCCCC1)=C(\Cl)c1ccc(Cl)cc1)c1ccccc1`, in data set [1], the “-log(1/EC50)” value amounted to 1.708 and the concentration for a half-maximal effect (EC50) is 51 µM. For the same molecule, the Activity result in data set [2] is “Non-toxic”.
In the case of `O=C(N/C(C(=O)N1CCCCC1)=C(\Br)c1ccccc1[N+](=O)[O-])c1ccccc1`, in data set [1], the “-log(1/EC50)” value came to 0.7782 and the EC50 stood at 6 µM. Moreover, the Activity entry in data set [2] is on record as “Non-toxic”.
For the molecule `Cc1ccccc1/C(Br)=C(/NC(=O)c1ccccc1)C(=O)N1CCCCC1`, in data set [1], the “-log(1/EC50)” value is listed as -0.05061 and the half-maximal effective concentration (EC50) came to 0.9 µM. The Activity result in data set [2] was “Non-toxic”.
For the molecule `O=C(N/C(C(=O)N1CCCCC1)=C(\Cl)c1ccccc1Cl)c1ccccc1`, in data set [1], the “-log(1/EC50)” value was 1.591 and the EC50 stood at 39 µM. Also, the Activity result in data set [2] is “Non-toxic”.
For `O=C(N/C(C(=O)N1CCCCC1)=C(\Cl)c1ccc(Br)cc1)c1ccccc1` the same measures were 2, > 100 µM and “Non-toxic”.
For `O=C(N/C(C(=O)N1CCCCC1)=C(\Cl)c1ccccc1Br)c1ccccc1`, in data set [1], the “-log(1/EC50)” value is on record as 2 and the EC50 is > 100 µM. The Activity entry in data set [2] was “Non-toxic”.
In the case of `N#Cc1ccccc1/C(Br)=C(/NC(=O)c1ccccc1)C(=O)N1CCCCC1`, in data set [1], the “-log(1/EC50)” value worked out at 0.04139 and the EC50 amounted to 1.1 µM. For the same molecule, the Activity result in data set [2] was “Non-toxic”.
For `O=C(N/C(C(=O)N1CCCCC1)=C(\Cl)c1cnc2ccccc2c1)c1ccccc1` the same measures were 1.477, 30 µM and “Non-toxic”.
Take `O=C(N/C(C(=O)N1CCCCC1)=C(\Cl)c1ccc(F)cc1)c1ccccc1`: in data set [1], the “-log(1/EC50)” value came out at 0.3424 and the EC50 is 2.2 µM. Besides, the Activity result in data set [2] is on record as “Non-toxic”.
As for `O=C(N/C(C(=O)N1CCCCC1)=C(\Br)c1cccc(Br)c1)c1ccccc1`, in data set [1], the “-log(1/EC50)” value is on record as 1.544 and the EC50 amounted to 35 µM. Moreover, the Activity entry in data set [2] is on record as “Non-toxic”.
The matching figures for `COc1ccccc1/C(Br)=C(/NC(=O)c1ccccc1)C(=O)N1CCCCC1`: 0.3222, 2.1 µM and “Non-toxic”.
The matching figures for `O=C(N/C(C(=O)N1CCCCC1)=C(\Br)c1ccc(Cl)cc1)c1ccccc1`: 1, 10 µM and “Non-toxic”.
For the molecule `O=C(N/C(C(=O)N1CCCCC1)=C(\Cl)c1cncc2ccccc12)c1ccccc1`, in data set [1], the “-log(1/EC50)” value turned out to be 1.462 and the EC50 stood at 29 µM. Besides, in data set [2], the Activity result is recorded as “Non-toxic”.
For the molecule `N#Cc1ccccc1/C(Cl)=C(/NC(=O)c1ccccc1)C(=O)N1CCCCC1`, in data set [1], the “-log(1/EC50)” value stood at 0.2304 and the EC50 amounted to 1.7 µM. For the same molecule, the Activity entry in data set [2] was “Non-toxic”.
For `O=C(N/C(C(=O)N1CCCCC1)=C(\Cl)c1ccco1)c1ccccc1` the same measures were -0.09691, 0.8 µM and “Non-toxic”.
Consider `O=C(N/C(C(=O)N1CCCCC1)=C(\Br)c1ccc(Br)cc1)c1ccccc1`, for which, in data set [1], the “-log(1/EC50)” value turned out to be 1.813 and the EC50 stood at 65 µM. Also, the Activity entry in data set [2] is given as “Non-toxic”.
For `O=C(N/C(C(=O)N1CCCCC1)=C(\Br)c1cncc2ccccc12)c1ccccc1`, in data set [1], the “-log(1/EC50)” value worked out at 0.699 and the concentration giving a half-maximal response (EC50) turned out to be 5 µM. The Activity result in data set [2] is “Non-toxic”.
With `O=C(N/C(C(=O)N1CCCCC1)=C(\Cl)c1ccccc1[N+](=O)[O-])c1ccccc1`, in data set [1], the “-log(1/EC50)” value is reported as 1.531 and the EC50 came to 34 µM. The Activity entry in data set [2] is “Non-toxic”.
On to `Cc1ccc(/C(Br)=C(/NC(=O)c2ccccc2)C(=O)N2CCCCC2)cc1`, for which, in data set [1], the “-log(1/EC50)” value was 0.4472 and the EC50 turned out to be 2.8 µM. Also, the Activity result in data set [2] is listed as “Non-toxic”.
For `COc1ccccc1/C(Cl)=C(/NC(=O)c1ccccc1)C(=O)N1CCCCC1` the same measures were 1.322, 21 µM and “Non-toxic”.
For `O=C(N/C(C(=O)N1CCCCC1)=C(\Cl)c1ccccc1F)c1ccccc1`, in data set [1], the “-log(1/EC50)” value is 0.2553 and the EC50 came to 1.8 µM. For the same molecule, the Activity result in data set [2] is listed as “Non-toxic”.
`O=C(N/C(C(=O)N1CCCCC1)=C(\Br)c1ccccc1)c1ccccc1`: in data set [1], the “-log(1/EC50)” value stood at 0.1139 and the EC50 was determined as 1.3 µM. Further, the Activity entry in data set [2] was “Non-toxic”.
As for `O=C(N/C(C(=O)N1CCCCC1)=C(\Cl)c1cccnc1)c1ccccc1`, in data set [1], the “-log(1/EC50)” value is -0.02687 and the EC50 is 0.9 µM. For the same molecule, the Activity result in data set [2] is reported as “Non-toxic”.
Consider `O=C(N/C(C(=O)N1CCCCC1)=C(\Br)c1cnc2ccccc2c1)c1ccccc1`, for which, in data set [1], the “-log(1/EC50)” value turned out to be 0.8451 and the EC50 was 7 µM. In data set [2], the Activity entry is “Non-toxic”.
Consider `O=C(N/C(C(=O)N1CCCCC1)=C(\Br)c1ccc(F)cc1)c1ccccc1`, for which, in data set [1], the “-log(1/EC50)” value is recorded as 0.2553 and the EC50 worked out at 1.8 µM. The Activity result in data set [2] is “Non-toxic”.
The matching figures for `Cc1ccccc1/C(Cl)=C(/NC(=O)c1ccccc1)C(=O)N1CCCCC1`: -0.004365, 1 µM and “Non-toxic”.
With `O=C(N/C(C(=O)N1CCCCC1)=C(\Br)c1ccccc1F)c1ccccc1`, in data set [1], the “-log(1/EC50)” value turned out to be 0.1761 and the EC50 was found to be 1.5 µM. Moreover, in data set [2], the Activity entry is given as “Non-toxic”.
As to `O=C(N/C(C(=O)N1CCCCC1)=C(\Cl)c1ccccc1)c1ccccc1`, in data set [1], the “-log(1/EC50)” value is 0.07918 and the EC50 came out at 1.2 µM. Moreover, in data set [2], the Activity result is given as “Non-toxic”. In data set [3], the Activity result is “Non-toxic”.
Consider `COc1ccc(/C(Cl)=C(/NC(=O)c2ccccc2)C(=O)N2CCCCC2)cc1`, for which, in data set [1], the “-log(1/EC50)” value stood at 1.398 and the EC50 came to 25 µM. In data set [2], the Activity entry is listed as “Non-toxic”.

The record behind these values is ChEMBL document CHEMBL3588769, “Synthesis and quantitative structure-activity relationships study for phenylpropenamide derivatives as inhibitors of hepatitis B virus replication” (Eur J Med Chem, 2015).
